Assay [1] has as its system IFN induction in virus-stimulated THP1 cells. Nature of the assay: Human cGAS cell assay, virus-stimulated THP1-Dual cells (THP1(vir) IC50). The format is cell-based. Particulars: THP-1, 18 h, Table 1, baculovirus-stimulated THP1-Dual cells, Lucia luciferase, 18 h, read-out: THP(vir) IC50. From the text:
6.2 Method: Human cGAS Cell Assay and cGAMP Stimulated Counter Cell Assay (THP1(vir) IC50 and THP1(cGAMP) IC50)
THP1-Dual™ cells (InvivoGen #thpd-nfis) expressing IRF dependent Lucia luciferase reporter were used as basis for both assays. For the detection of cellular cGAS activity cells were stimulated by a baculovirus (pFastbac-1, Invitrogen, no coding insert) infection that delivers the cGAS enzyme stimulating double-stranded DNA (measurement of THP1(vir) IC50).
Pathway activity was monitored by measuring the Lucia luciferase activity induced by either DNA stimulated cGAS enzyme activity (measurement of THP1(vir) IC50) or by cGAMP directly (measurement of THP1(cGAMP) IC50, counter assay).
Compounds were delivered in 10 mM DMSO solution, serially diluted and transferred to the 384 well assay plate (Greiner #781201) using an Echo acoustic dispenser. Typically, 8 concentrations were used with the highest concentration at 10 μM in the final assay volume followed by ^˜1:5 dilution steps. DMSO concentration was set to 1% in the final assay volume. The 384 well assay plate contained […] (column 1-22), and DMSO in column 23 and 24.
Cells, cultivated according to manufacturer conditions, were harvested by centrifugation at 300 g/10 min and were then resuspended and diluted to 1.66E5 cells/ml in fresh cell culture medium (RPMI 1640 (Gibco #A10491-01), 10% FCS (Gibco #10500), 1× GlutaMax (Gibco #35050-061), 1× Pen/Strep solution (Gibco #15140-122), 100 μg/ml Normocin (InvivoGen #ant-nr), 100 μg/ml Zeocin (InvivoGen #ant-zn), 10 μg/ml Blasticidin S (Life Technologies #A11139-03)). The baculovirus solution was then added 1:200 (have varied according to virus batch) to the cells (measurement of THP1(vir) IC50).
30 μL of the cell/virus-mix were added to each well of the compound plate from column 1-23 via MultiDrop Combi dispenser (5000 cells/well). In column 24, 30 μl/5000 cells/well without virus were added as a low control.
The plates were then incubated for 18 h at 37° C. in a humidified incubator.
Following that, 15 μL of QuantiLuc detection reagent (InvivoGen #rep-qlcg5) were added to each well using a MultiDrop Combi. Measurement was done immediately after the addition using an EnVision reader (US-luminescence read-mode).
(§1) Data Evaluation and Calculation:
For data evaluation and calculation, the measurement of the low control was set as 0% control and the measurement of the high control was set as 100% control. The IC50 values were calculated using the standard 4 parameter logistic regression formula. Calculation: [y=(a−d)/(1+(x/c)^b)+d], a=low value, d=high value; x=conc M; c=IC50 M; b=slope

Assay [2] deals with cGAS (Homo sapiens, UniProt Q8N884). Nature of the assay: Human cGAS enzyme assay (hcGAS IC50, in vitro), cGAMP formation by RapidFire MS. Also noted: HumancGAS (amino acid 1-522) with an N-terminal 6×-His-tag and SUMO-tag; 6xHis (N); SUMO (N); made in house; host or cells: E. coli BL21(DE3) pLysS. The format is biochemical. The conditions noted are these: Table 1; 45 bp dsDNA-activated enzyme. The method, then:
6.1 Method: Human cGAS Enzyme Assay (hcGAS IC50 (In Vitro))
Human cGAS enzyme was incubated in the presence of a 45 base pair double stranded DNA to activate the enzyme and GTP and ATP as substrates. Compound activity was determined by measuring the effect of compounds on the formation of the product of the enzyme reaction, cGAMP, which is measured by a mass spectrometry method.
HumancGAS (amino acid 1-522) with an N-terminal 6×-His-tag and SUMO-tag was expressed in E. coli BL21(DE3) pLysS (Novagen) cells for 16 h at 18° C. Cells were lysed in buffer containing 25 mM Tris (pH 8), 300 mM NaCl, 10 mM imidazole, 10% glycerol, protease inhibitor cocktail (cOmplete™, EDTA-free, Roche) and DNase (5 μg/mL). […] Purified protein was concentrated to 1.7 mg/mL and stored at −80° C.
Compounds were delivered in 10 mM DMSO solution, serially diluted and transferred to the 384 well assay plate (Greiner #781201) using an Echo acoustic dispenser. Typically, 8 concentrations were used with the highest concentration at 10 μM in the final assay volume followed by ^˜1:5 dilution steps. DMSO concentration was set to 1% in the final assay volume. The 384 well assay plate contained 22 test compounds (column 1-22), and DMSO in column 23 and 24.
After the compound transfer, 15 μL of the enzyme-DNA-working solution (12 nM cGAS, 0.32 μM 45base pair DNA in assay buffer, 10 mM Tris pH 7.5/10 mM KCl/5 mM MgCl2/1 mM DTT) were added to each well from column 1-23 via a MultiDrop Combi dispenser. In column 24, 15 μl of assay buffer without enzyme/DNA were added as a low control.
The plates were then pre-incubated for 60 min at room temperature.
Following that, 10 μL of GTP (ThermoFisher #R0461)-ATP (Promega #V915B) mix in assay buffer were added to the assay plate (columns 1-24, 30 μM final concentration each) using a Multidrop Combi.
The plates were incubated again for 90 min at room temperature.
Following the incubation, the reaction was stopped by 80 μL of 0,1% formic acid in assay buffer containing 5 nM cyclic-di-GMP (Sigma #SML1228) used as internal standard for the mass spectrometry. The total volume/well was 105 μL.
The plates were centrifuged at 4000 rpm, 4° C., for 5 min.
The RapidFire autosampler was coupled to a binary pump (Agilent 1290) and a Triple Quad 6500 (ABSciex, Toronto, Canada). […] Aspiration time: 250 ms; Load time: 3000 ms; Elute time: 3000 ms; Wash volume: 500 μL.
The MS was operated in positive ion mode with HESI ion source, with a source temperature of 550 C, curtain gas=35, gas 1=65, and gas 2=80. Unit mass resolution in SRM mode. The following transitions and MS parameters (DP: declustering potential and CE: collision energy) for cGAMP and DicGMP were determined:
Internal standard: cyclic-di-GMP at 690.1/540, DP=130, CE=30.
The formation of cGAMP was monitored and evaluated as ratio to cyclic-di-GMP.
as §1
For data evaluation and calculation, the measurement of the low control was set as 0% control and the measurement of the high control was set as 100% control. The IC50 values were calculated using the standard 4 parameter logistic regression formula. Calculation: [y=(a−d)/(1+(x/c)^b)+d], a=low value, d=high value; x=conc M; c=1C50 M; b=slope

Usually IC50 stands for the concentration needed to halve the response being measured.

cGAS, sequence (Q8N884 whole entry): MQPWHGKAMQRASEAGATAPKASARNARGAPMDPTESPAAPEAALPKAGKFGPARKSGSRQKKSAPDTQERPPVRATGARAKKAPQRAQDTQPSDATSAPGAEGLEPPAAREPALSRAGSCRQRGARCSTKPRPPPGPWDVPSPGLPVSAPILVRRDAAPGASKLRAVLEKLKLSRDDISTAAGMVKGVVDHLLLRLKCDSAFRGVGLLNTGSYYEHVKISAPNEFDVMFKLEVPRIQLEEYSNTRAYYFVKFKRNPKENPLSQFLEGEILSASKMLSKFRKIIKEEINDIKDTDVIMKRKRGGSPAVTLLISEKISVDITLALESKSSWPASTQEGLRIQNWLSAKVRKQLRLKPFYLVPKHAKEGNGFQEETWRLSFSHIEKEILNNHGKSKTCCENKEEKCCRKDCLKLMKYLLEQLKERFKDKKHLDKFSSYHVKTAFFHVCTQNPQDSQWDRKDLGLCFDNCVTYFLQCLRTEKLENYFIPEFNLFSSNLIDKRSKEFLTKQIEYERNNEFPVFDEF

Take `C[C@H]1CN2CC[C@@H]1n1c(nc3ccccc31)O[C@H]1C[C@@H](C(=O)O)N(C1)c1nc(nc3c1oc1ccccc13)CCOCCOC2=O` (mixture of isomers) [Example 12.01]: the IC50 in assay [1] was 240 nM; in assay [2] it was 8.9 nM.

Turning to `C[C@H]1CN2CC[C@@H]1n1c(nc3ccccc31)O[C@H]1C[C@@H](C(=O)O)N(C1)c1nc(nc3c1oc1ccccc13)CCCCCCC2=O` (racemic) [Example 1.24], the IC50 in assay [1] turned out to be 170 nM; in assay [2], 18 nM.

On to `C[C@H]1CN2CC[C@@H]1n1c(nc3cccc(Cl)c31)O[C@H]1C[C@@H](C(=O)O)N(C1)c1nc(nc3c1oc1ccccc13)CC(=O)NCCCC2=O` (racemic) [Example 2.01, (12S,14S)-4-chloro-37-methyl-29,34-dioxo-11,18-dioxa-2,9,15,26,30,35,40-heptaazaoctacyclo[33.2.2.1^12,15.1^16,27.0^2,10.0^3,8.0^17,25.0^19,24]hentetraconta-3,5,7,9,16(40),17(25),19(24),20,22,26-decaene-14-carboxylic acid], for which the IC50 in assay [1] was found to be 11 nM; in assay [2] it was 6 nM.

Consider `C[C@@H]1CN2CC[C@H]1n1c(nc3cc(Cl)ccc31)O[C@H]1C[C@@H](C(=O)O)N(C1)c1nc(nc3c1oc1ccccc13)CCOCCCC2=O` [Example 1.01], for which the IC50 in assay [1] is 39 nM; in assay [2], 14 nM.

For `C[C@H]1CN2CC[C@@H]1n1c(nc3cc(Cl)ccc31)O[C@H]1C[C@@H](C(=O)O)N(C1)c1nc(nc3c1oc1ccccc13)CCOCCCC2=O` [Example 1.02], the half-maximal inhibitory concentration (IC50) in assay [1] and in assay [2] was 2.8 nM each time.

Turning to `O=C(O)[C@@H]1C[C@H]2CN1c1nc(nc3c1oc1ccccc13)CCOCCCC(=O)N1CCC(CC1)n1c(nc3cc(F)ccc31)O2` [Example 1.03], the half-inhibitory concentration (IC50) in assay [1] came to 110 nM; in assay [2], 5.6 nM.

Take `O=C(O)[C@@H]1C[C@H]2CN1c1nc(nc3c1oc1ccccc13)CCOCCCC(=O)N1CCC(CC1)n1c(nc3ccc(F)cc31)O2` [Example 1.04]: the IC50 came to 44 nM in assay [1] and 4.5 nM in assay [2].

For the molecule `C[C@H]1CN2CC[C@@H]1n1c(nc3ccccc31)O[C@H]1C[C@@H](C(=O)O)N(C1)c1nc(nc3c1oc1ccccc13)CCOCCCC2=O` [Example 1.05], the IC50 in assay [1] was determined as 2.9 nM; in assay [2], 1.8 nM.

On to `C[C@H]1CN2CC[C@@H]1n1c(nc3ccc(Cl)cc31)O[C@H]1C[C@@H](C(=O)O)N(C1)c1nc(nc3c1oc1ccccc13)CCOCCCC2=O` [Example 1.06], for which the IC50 in assay [1] was 4.1 nM; in assay [2], 3.2 nM.

As for `C[C@H]1CN2CC[C@@H]1n1c(nc3ccccc31)O[C@H]1C[C@@H](C(=O)O)N(C1)c1nc(nc3c1oc1cc(Cl)ccc13)CCOCCCC2=O` [Example 1.07], the IC50 worked out at 6.5 nM in assay [1] and 3.8 nM in assay [2].

Regarding `C[C@H]1CN2CC[C@@H]1n1c(nc3cc(Cl)ccc31)O[C@H]1C[C@@H](C(=O)O)N(C1)c1nc(nc3c1oc1cc(Cl)ccc13)CCOCCCC2=O` [Example 1.08], the IC50 in assay [1] was 2.4 nM; in assay [2], 4.5 nM.

As for `C[C@H]1CN2CC[C@@H]1n1c(nc3cc(Cl)ccc31)O[C@H]1C[C@@H](C(=O)O)N(C1)c1nc(nc3c1oc1cc(F)ccc13)CCCCOCC2=O` [Example 1.09], the IC50 in assay [1] was 4.3 nM; in assay [2], 3.9 nM.

As for `C[C@H]1CN2CC[C@@H]1n1c(nc3ccc(Cl)cc31)O[C@H]1C[C@@H](C(=O)O)N(C1)c1nc(nc3c1oc1ccccc13)COCCCCC2=O` [Example 1.10], the IC50 in assay [1] is 13 nM; in assay [2], 5 nM.

Consider `C[C@H]1CN2CC[C@@H]1n1c(nc3cc(Cl)ccc31)O[C@H]1C[C@@H](C(=O)O)N(C1)c1nc(nc3c1oc1ccccc13)COCCOCC2=O` [Example 1.11], for which the IC50 is 3.6 nM in assay [1] and 1.9 nM in assay [2].

Regarding `C[C@H]1CN2CC[C@@H]1n1c(nc3cc(Cl)ccc31)O[C@H]1C[C@@H](C(=O)O)N(C1)c1nc(nc3c1oc1ccccc13)C(F)(F)CCCCCC2=O` [Example 1.12], the IC50 in assay [1] was 2.2 nM; in assay [2], 5.2 nM.

Values taken from patent publication US20240208997A1, “CYCLIC BENZIMIDAZOLE DERIVATIVES AS CGAS INHIBITORS” (Boehringer Ingelheim International GmbH, priority 2022, published 2024).
